Data as given in paper PMC5107130 (Pharmacological Research, 2016).
Entries after “also recorded” stand apart in the source; their conditions may differ. Like-named read-outs stand apart in the source and are kept apart here.

How the values were obtained:
[1] = target: T1, Recombinant full length human CBS (Homo sapiens, UniProt P35520); experiment: AzMC fluorescence assay of CBS-derived H2S production; format: biochemical; conditions: for % inhibition of CBS-induced AzMC fluorescence: copper compounds; for % inhibition of CBS-induced AzMC fluorescence / Confirmation (% inhibition of CBS-induced AzMC fluorescence): mean ± SEM, n = 3; for Initial screen (% inhibition of CBS-induced AzMC fluorescence) / Confirmation (% inhibition of CBS-induced AzMC fluorescence): 30 μM
T1 sequence (P35520 1-551): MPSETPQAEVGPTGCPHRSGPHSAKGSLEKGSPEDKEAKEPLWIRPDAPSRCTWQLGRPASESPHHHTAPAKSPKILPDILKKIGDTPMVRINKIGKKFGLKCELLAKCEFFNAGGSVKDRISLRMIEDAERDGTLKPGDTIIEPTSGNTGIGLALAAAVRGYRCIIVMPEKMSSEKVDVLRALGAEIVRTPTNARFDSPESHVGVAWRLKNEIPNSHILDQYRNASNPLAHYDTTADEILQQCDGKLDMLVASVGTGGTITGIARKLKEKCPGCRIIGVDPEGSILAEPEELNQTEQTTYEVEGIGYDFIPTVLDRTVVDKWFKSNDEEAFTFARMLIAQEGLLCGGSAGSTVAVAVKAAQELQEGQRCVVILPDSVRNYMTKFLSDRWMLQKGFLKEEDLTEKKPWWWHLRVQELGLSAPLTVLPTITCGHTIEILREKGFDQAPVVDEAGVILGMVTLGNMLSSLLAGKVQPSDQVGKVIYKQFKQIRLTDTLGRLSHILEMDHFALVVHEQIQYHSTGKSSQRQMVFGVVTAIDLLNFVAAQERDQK

HCT116 cells [2] = experiment: Cell proliferation, xCELLigence system; format: cell-based, human; conditions: Cell Index, 48 h, concentration in the value
HCT116 cells [3] = experiment: Cytotoxicity, lactate dehydrogenase; format: cell-based, human; conditions: 48 h
HCT116 cells [4] = experiment: Mitochondrial function, MTT assay; format: cell-based, human; conditions: 48 h
[5] = Counterscreen: AzMC fluorescence signal generated by the H2S donor GYY4137; conditions: for % inhibition of GYY4137-induced AzMC fluorescence / Confirmation (% inhibition of GYY4137-induced AzMC fluorescence): mean ± SEM, n = 3
[6] = target: T1, Recombinant full length human CBS; experiment: Methylene blue assay of CBS-derived H2S; format: biochemical; conditions: read-out: % inhibition of CBS-induced methylene blue signal
CBS = conditions: cited from earlier work; for % inhibition of CBS activity: 1 mM
CSE = conditions: cited from earlier work
[7] = read-out: % inhibition of CBS-induced AzMC fluorescence, 10 μM, mean ± SEM, n = 3
[8] = read-out: % inhibition of CBS-induced AzMC fluorescence, 100 μM, mean ± SEM, n = 3
[9] = read-out: Confirmation (% inhibition of CBS-induced AzMC fluorescence), 30 μM, mean ± SEM, n = 3
[10] = read-out: Initial screen (% inhibition of CBS-induced AzMC fluorescence), 30 μM
[11] = read-out: % inhibition of CBS-induced AzMC fluorescence

NNCc1ccc(O)c(O)c1O [2,3,4-trihydroxybenzylhydrazine]
inhibition at 30 µM ([1]; read-out: % inhibition of recombinant CBS activity, 30 μM, standard assay conditions): 51 ± 2% | inhibition at 100 µM ([1]; read-out: % inhibition of recombinant CBS activity, 100 μM, standard assay conditions, freshly dissolved): 82% | Effect on HCT116 cell proliferation (words) (HCT116 cells [2]): inhibited HCT116 cell proliferation in vitro at 10–300 μM | Cytotoxicity / LDH release in HCT116 cells (HCT116 cells [3]): did not exert cytotoxic effects | MTT conversion in HCT116 cells (HCT116 cells [4]): reduced MTT conversion at 300 μM

O=C(O)C1=CC(=C(c2ccc(O)c(C(=O)O)c2)c2ccc(O)c(C(=O)O)c2)C=CC1=O [Aurintricarboxylic acid]
IC50 [1]: ~3 µM | inhibition at 10 µM [1, 7]: 72 ± 1% | inhibition at 100 µM [1, 8]: 94 ± 1% | inhibition at 30 µM [1, 9]: 87 ± 1% | inhibition at 30 µM [1, 10]: 59% | % inhibition of GYY4137-induced AzMC fluorescence ([5]; 10 μM): −3 ± 2% | Confirmation (% inhibition of GYY4137-induced AzMC fluorescence) ([5]; 30 μM): −2 ± 1% | % inhibition of GYY4137-induced AzMC fluorescence ([5]; 100 μM): 6 ± 1% | inhibition at 10 µM [6]: 38 ± 2% | inhibition at 30 µM [6]: 61 ± 1% | inhibition at 100 µM [6]: 72 ± 1% | Effect on HCT116 cell proliferation (words) (HCT116 cells [2]): did not inhibit cell proliferation at 10–100 μM; also recorded: at 300 μM increased cell proliferation | Effect on HCT116 cell proliferation (words) (HCT116 cells [2]; listed as aurintricarboxylic acid): stimulated cell proliferation at 300 μM

[Cl][Cu][Cl] [CuCl2, copper(II) chloride]
% inhibition of CBS-induced AzMC fluorescence ([1]; 0.1 μM): 36 ± 1% | % inhibition of CBS-induced AzMC fluorescence ([1]; 0.3 μM): 60 ± 2% | % inhibition of CBS-induced AzMC fluorescence ([1]; 1 μM): 90 ± 1% | IC50 ([1]; read-out: IC50, inhibition of recombinant CBS (CBS-induced AzMC fluorescence), cell-free, 2 mM L-cysteine and homocysteine): ~0.2 µM | % inhibition of GYY4137-induced AzMC fluorescence ([5]; copper compounds, 0.1 μM): 1 ± 1% | % inhibition of GYY4137-induced AzMC fluorescence ([5]; copper compounds, 0.3 μM): 10 ± 1% | % inhibition of GYY4137-induced AzMC fluorescence ([5]; copper compounds, 1 μM): 14 ± 1% | Effect on HCT116 cell proliferation (words) (HCT116 cells [2]): only inhibited HCT116 cells proliferation at the highest concentration tested (1 mM) | Effect on HCT116 cell proliferation (words) (HCT116 cells [2]; listed as copper ions): up to 300 μM, did not inhibit HCT116 cell proliferation | Cytotoxicity / LDH release in HCT116 cells (HCT116 cells [3]): paradoxical reduction in LDH activity | MTT conversion in HCT116 cells (HCT116 cells [4]): decreased MTT conversion

N[C@@H]1CON=C1O [D-cycloserine]
% inhibition of CBS activity (CBS): 15–20%

Oc1c(Cl)cc(Cl)c(Cl)c1Cc1c(O)c(Cl)cc(Cl)c1Cl.Oc1c(Cl)cc(Cl)c(Cl)c1Cc1c(O)c(Cl)cc(Cl)c1Cl [Hexachlorophene, 2,2′-methylenebis(3,4,6-trichlorophenol)-3,4,6-trichloro-2-[(2,3,5-trichloro-6-hydroxyphenyl)methyl]phenol]
IC50 [1]: ~60 µM | inhibition at 10 µM [1, 7]: 3 ± 1% | inhibition at 100 µM [1, 8]: 70 ± 1% | inhibition at 30 µM [1, 9]: 12 ± 1% | inhibition at 30 µM [1, 10]: 48% | % inhibition of GYY4137-induced AzMC fluorescence ([5]; 10 μM): −4 ± 2% | Confirmation (% inhibition of GYY4137-induced AzMC fluorescence) ([5]; 30 μM): 1 ± 1% | % inhibition of GYY4137-induced AzMC fluorescence ([5]; 100 μM): −2 ± 1% | inhibition at 10 µM [6]: 21 ± 1% | inhibition at 30 µM [6]: 31 ± 1% | inhibition at 100 µM [6]: 64 ± 1% | Effect on HCT116 cell proliferation (words) (HCT116 cells [2]): did not affect HCT116 proliferation up to 3 μM; also recorded: fully inhibited cell proliferation at 10 μM; also recorded: inhibits HCT116 proliferation at fairly low concentrations (10 μM) | Cytotoxicity / LDH release in HCT116 cells (HCT116 cells [3]): exerted cytotoxic effects

Cn1ncnc2c(=O)n(C)c(=O)nc1-2 [NSC67078, 1,6-dimethyl-pyrimido[5,4-e]-1,2,4-triazine-5,7(1H,6H)-dione]
IC50 [1]: ~1 µM | inhibition at 1 µM [1, 11]: 47 ± 1% | inhibition at 10 µM [1, 11]: 88 ± 1% | inhibition at 30 µM [1, 11]: 93 ± 1% | % inhibition of GYY4137-induced AzMC fluorescence ([5]; 1 μM): 25 ± 1% | % inhibition of GYY4137-induced AzMC fluorescence ([5]; 10 μM): 65 ± 1% | % inhibition of GYY4137-induced AzMC fluorescence ([5]; 30 μM): 78 ± 1% | IC50 ([5]; read-out: IC50, inhibition of GYY4137-induced AzMC fluorescence, scavenging/non-specific effects): ~6 µM | inhibition at 1 µM [6]: 59 ± 2% | inhibition at 10 µM [6]: 73 ± 1% | inhibition at 30 µM [6]: 95 ± 1% | MTT conversion in HCT116 cells (HCT116 cells [4]): suppression of MTT conversion | Potency of CSE inhibition relative to CBS inhibition (fold lower) (CSE): 3 fold

C#CCC(N)C(=O)O (stereo not shown) [PAG]
CBS inhibition (CBS): is not an inhibitor of CBS

CC(=O)[C@H]1CC[C@H]2[C@@H]3CCC4=CC(=O)CC[C@]4(C)[C@H]3CC[C@]12C [Progesterone]
inhibition at 30 µM [1, 9]: 75 ± 3% | inhibition at 30 µM [1, 10]: 68% | Confirmation (% inhibition of GYY4137-induced AzMC fluorescence) ([5]; 30 μM): 64 ± 1%

Cc1cc(/C=C/c2ccc3cc(N(C)C)ccc3[n+]2C)c(C)n1-c1ccccc1 [Pyrvinium pamoate]
inhibition at 30 µM [1, 10]: 49% | Confirmation (% inhibition of GYY4137-induced AzMC fluorescence) ([5]; 30 μM): 36 ± 3%

Cc1cc2nc3c(=O)[nH]c(=O)nc-3n(C)c2cc1C=O [Ro-08-2750, 2,3,4,10-Tetrahydro-7,10-dimethyl-2,4-dioxobenzo[g]pteridine-8-carboxaldehyde]
inhibition at 30 µM [1, 9]: 59 ± 3% | inhibition at 30 µM [1, 10]: 55% | Confirmation (% inhibition of GYY4137-induced AzMC fluorescence) ([5]; 30 μM): 69 ± 8%

N.N.N.N.N.N.N.N.N.N.N.N.N.N.[Cl-].[Cl-].[Cl-].[Cl-].[Cl-].[Cl-].[O-2].[O-2].[Ru+3].[Ru+3].[Ru+4] [Ruthenium red]
Initial screen (% inhibition of CBS-induced AzMC fluorescence) [1]: 72% | Confirmation (% inhibition of CBS-induced AzMC fluorescence) [1]: 72 ± 6% | Confirmation (% inhibition of GYY4137-induced AzMC fluorescence) ([5]; 30 μM): 72 ± 3%

O=C(OC[C@H]1O[C@@H](OC(=O)c2cc(O)c(O)c(OC(=O)c3cc(O)c(O)c(O)c3)c2)[C@H](OC(=O)c2cc(O)c(O)c(OC(=O)c3cc(O)c(O)c(O)c3)c2)[C@@H](OC(=O)c2cc(O)c(O)c(OC(=O)c3cc(O)c(O)c(O)c3)c2)[C@@H]1OC(=O)c1cc(O)c(O)c(OC(=O)c2cc(O)c(O)c(O)c2)c1)c1cc(O)c(O)c(OC(=O)c2cc(O)c(O)c(O)c2)c1 [Tannic acid, 2,3-dihydroxy-5-({[(2R,3R,4S,5R,6R)-3,4,5,6-tetrakis({3,4-dihydroxy-5-[(3,4,5-trihydroxyphenyl)carbonyloxy]phenyl}carbonyloxy)oxan-2-yl]methoxy}carbonyl)phenyl 3,4,5-trihydroxybenzoate]
IC50 [1]: ~40 µM | inhibition at 10 µM [1, 7]: 28 ± 2% | inhibition at 30 µM ([1]; read-out: % inhibition of CBS-induced AzMC fluorescence, 30 μM, mean ± SEM, n = 3): 43 ± 1% | inhibition at 100 µM [1, 8]: 75 ± 1% | inhibition at 30 µM [1, 9]: 43 ± 1% | inhibition at 30 µM [1, 10]: 73% | % inhibition of GYY4137-induced AzMC fluorescence ([5]; 10 μM): −1 ± 1% | % inhibition of GYY4137-induced AzMC fluorescence ([5]; 30 μM): 3 ± 2% | Confirmation (% inhibition of GYY4137-induced AzMC fluorescence) ([5]; 30 μM): 3 ± 2% | % inhibition of GYY4137-induced AzMC fluorescence ([5]; 100 μM): 8 ± 3% | inhibition at 10 µM [6]: 24 ± 9% | inhibition at 30 µM [6]: 46 ± 3% | inhibition at 100 µM [6]: 56 ± 3% | Effect on HCT116 cell proliferation (words) (HCT116 cells [2]): concentration-dependently inhibited proliferation, starting with 10 μM; also recorded: complete inhibition was seen at 100 μM | Cytotoxicity / LDH release in HCT116 cells (HCT116 cells [3]): without signs of cytotoxicity

N#C/C(=C\c1ccc(O)c(O)c1)C(=O)NCCCNC(=O)/C(C#N)=C/c1ccc(O)c(O)c1 [Tyrphostin AG 537]
Initial screen (% inhibition of CBS-induced AzMC fluorescence) [1]: 49% | Confirmation (% inhibition of CBS-induced AzMC fluorescence) [1]: 42 ± 1% | Confirmation (% inhibition of GYY4137-induced AzMC fluorescence) ([5]; 30 μM): 48 ± 2%

NNC(=O)c1ccncc1 [isoniazid]
% inhibition of CBS activity (CBS): 15–20%

Chlorophyllide Cu complex Na salt
Initial screen (% inhibition of CBS-induced AzMC fluorescence) [1]: 80% | Confirmation (% inhibition of CBS-induced AzMC fluorescence) [1]: 97 ± 1% | Initial screen (% inhibition of CBS-induced AzMC fluorescence) ([1]; listed as Chlorophyllide cu complex Na salt): 82% | Confirmation (% inhibition of GYY4137-induced AzMC fluorescence) ([5]; 30 μM): 78 ± 3%

Verteporfin
Initial screen (% inhibition of CBS-induced AzMC fluorescence) [1]: 69% | Confirmation (% inhibition of CBS-induced AzMC fluorescence) [1]: 41 ± 5% | Confirmation (% inhibition of GYY4137-induced AzMC fluorescence) ([5]; 30 μM): 38 ± 5%
